Laboratory results from patent US20230286958A1, “PLASMA KALLIKREIN INHIBITORS” (Merck Sharp & Dohme LLC, priority 2020, published 2023).

Assays:
Human plasma kallikrein = Human plasma kallikrein (Homo sapiens (Human), UniProt P03952); experiment: Kallikrein Assay (fluorogenic substrate Acetyl-K-P-R-AFC); format: biochemical; details: Plasma Kallikrein (PKal)
Summary of the method: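 Ki is derived from IC50 with the Cheng-Prusoff equation, and IC50 from the inflection point of a four-parameter logistic curve. The rate of AFC release is read with 0.5 nM purified enzyme and […] substrate at room temperature or 37 °C.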

human Factor XIa = human Factor XIa (Homo sapiens (Human), UniProt P03951); experiment: Factor XIa Assay (fluorogenic substrate GPR-AFC); format: biochemical; details: Factor XIa (FXIa)
human Factor XIa, sequence (P03951 388-625 limits assumed): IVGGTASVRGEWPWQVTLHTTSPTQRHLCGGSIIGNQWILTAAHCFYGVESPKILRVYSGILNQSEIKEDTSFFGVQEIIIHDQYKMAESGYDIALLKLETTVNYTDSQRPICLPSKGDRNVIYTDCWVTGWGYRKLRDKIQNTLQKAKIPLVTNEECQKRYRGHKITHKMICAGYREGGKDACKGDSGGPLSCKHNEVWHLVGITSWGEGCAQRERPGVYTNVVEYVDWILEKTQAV
human Factor XIa, sequence (P03951 19-387 partner limits assumed): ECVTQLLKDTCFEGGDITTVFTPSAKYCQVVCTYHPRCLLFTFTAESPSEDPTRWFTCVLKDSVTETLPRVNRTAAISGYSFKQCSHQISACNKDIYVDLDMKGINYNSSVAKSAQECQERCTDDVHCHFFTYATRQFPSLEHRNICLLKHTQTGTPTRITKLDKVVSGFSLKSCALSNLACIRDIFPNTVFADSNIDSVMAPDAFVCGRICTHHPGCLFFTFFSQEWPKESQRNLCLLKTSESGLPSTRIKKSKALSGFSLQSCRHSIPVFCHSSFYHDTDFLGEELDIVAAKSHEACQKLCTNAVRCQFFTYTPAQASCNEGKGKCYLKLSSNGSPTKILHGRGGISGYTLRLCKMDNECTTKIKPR

Human plasma kallikrein, sequence (P03952 391-638): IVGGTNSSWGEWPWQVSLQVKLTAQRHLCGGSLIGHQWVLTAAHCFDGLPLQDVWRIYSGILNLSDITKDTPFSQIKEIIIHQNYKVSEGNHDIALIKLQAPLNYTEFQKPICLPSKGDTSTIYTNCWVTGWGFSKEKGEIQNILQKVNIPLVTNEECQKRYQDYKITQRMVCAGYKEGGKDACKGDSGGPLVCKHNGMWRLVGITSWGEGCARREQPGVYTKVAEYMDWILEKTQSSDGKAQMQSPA
Human plasma kallikrein, sequence (P03952 20-390 partner): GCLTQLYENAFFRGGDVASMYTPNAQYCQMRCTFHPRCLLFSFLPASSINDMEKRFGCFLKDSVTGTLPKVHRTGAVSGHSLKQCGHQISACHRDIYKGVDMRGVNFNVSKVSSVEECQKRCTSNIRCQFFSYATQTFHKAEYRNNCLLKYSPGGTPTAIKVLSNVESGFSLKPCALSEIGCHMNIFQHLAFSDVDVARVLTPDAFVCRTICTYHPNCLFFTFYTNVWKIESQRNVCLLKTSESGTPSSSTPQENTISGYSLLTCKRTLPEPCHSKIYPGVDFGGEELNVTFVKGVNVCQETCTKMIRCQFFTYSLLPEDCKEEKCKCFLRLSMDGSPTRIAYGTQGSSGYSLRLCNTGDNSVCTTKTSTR

Row | IC50 (Human plasma kallikrein) | IC50 (human Factor XIa) | Compound
1 | 0.0143 µM | 4.59 µM | COc1nc(N2C[C@H]3C[C@H]3C2=O)ncc1Cn1cc(NC(=O)c2nc(-c3c(C(F)F)ccc(Cl)c3F)cnc2C)cn1 [Example 95, 6-(3-Chloro-6-(difluoromethyl)-2-fluorophenyl)-N-(1-((4-methoxy-2-((1R, 5S)-2-oxo-3-azabicyclo[3.1.0]hexan-3-yl)pyrimidin-5-yl)methyl)-1H-pyrazol-4-yl)-3-methylpyrazine-2-carboxamide]
2 | 0.0191 µM | 4.38 µM | O=C(Nc1cnn(Cc2cnc(N3C[C@H]4C[C@H]4C3=O)nc2)c1)c1nc(-c2c(C(F)F)ccc(Cl)c2F)cnc1COC1CC1 [Example 116, 6-(3-Chloro-6-(difluoromethyl)-2-fluorophenyl)-3-(cyclopropoxymethyl)-N-(1-((2-((1R,5S)-2-oxo-3-azabicyclo[3.1.0]hexan-3-yl)pyrimidin-5-yl)methyl)-1H-pyrazol-4-yl)pyrazine-2-carboxamide]
3 | 0.047 µM | > 10 µM | Cc1ncc(-c2c(C(F)F)ccc(Cl)c2F)nc1C(=O)Nc1cnn(Cc2ncc(N3C[C@H]4C[C@H]4C3=O)cc2F)c1 [Example 138, 6-(3-Chloro-6-(difluoromethyl)-2-fluorophenyl)-N-(1-((3-fluoro-5-((1R,5S)-2-oxo-3-azabicyclo[3.1.0]hexan-3-yl)pyridin-2-yl)methyl)-1H-pyrazol-4-yl)-3-methylpyrazine-2-carboxamide]
4 | 0.0024 µM | > 10 µM | O=C(Nc1cnn(Cc2ccc(N3C[C@H]4C[C@H]4C3=O)cc2)c1)c1cncc(-c2c(C(F)F)ccc(Cl)c2F)n1 [Example 145, 6-(3-Chloro-6-(difluoromethyl)-2-fluorophenyl)-N-(1-(4-((1R,5S)-2-oxo-3-azabicyclo[3.1.0]hexan-3-yl)benzyl)-1H-pyrazol-4-yl)pyrazine-2-carboxamide]
5 | 0.0058 µM | > 10 µM | Cc1nc(N2C[C@H]3C[C@H]3C2=O)c(F)cc1C(C)n1cc(NC(=O)c2cncc(-c3c(C(F)F)ccc(Cl)c3F)n2)cn1 (stereo partly drawn) [Example 151, 6-(3-Chloro-6-(difluoromethyl)-2-fluorophenyl)-N-(1-(1-(5-fluoro-2-methyl-6-((1R.5S)-2-oxo-3-azabicyclo[3.1.0]hexan-3-yl)pyridin-3-yl)ethyl)-1H-pyrazol-4-yl)pyrazine-2-carboxamide]
6 | 0.0112 µM | 6.9 µM | Cc1nc(N2C[C@H]3C[C@H]3C2=O)ncc1[C@@H](CO)n1cc(NC(=O)c2cncc(-c3c(C(F)F)ccc(Cl)c3F)n2)cn1 [Example 159, 6-(3-Chloro-6-(difluoromethyl)-2-fluorophenyl)-N-(1-((S)-2-hydroxy-1-(4-methyl-2-((1R,5S)-2-oxo-3-azabicyclo[3.1.0]hexan-3-yl)pyrimidin-5-yl)ethyl)-177-pyrazol-4-yl)pyrazine-2-carboxamide]
7 | 0.0207 µM | > 10 µM | C[C@H](c1cnc(N2C[C@H]3C[C@H]3C2=O)nc1N)n1cc(NC(=O)c2cncc(-c3c(C(F)F)ccc(Cl)c3F)n2)cn1 [Example 170, N-(1-((R)-1-(4-Amino-2-((1R,5S)-2-oxo-3-azabicvclo[3.1.0]hexan-3-yl)pyrimidin-5-yl)ethyl)-1H-pyrazol-4-yl)-6-(3-chloro-6-(difluoromethyl)-2-fluorophenyl)pyrazine-2-carboxamide]
8 | 0.713 µM | > 10 µM | C[C@@H](c1cnc(N2C[C@H]3C[C@H]3C2=O)nc1N)n1cc(NC(=O)c2cncc(-c3c(C(F)F)ccc(Cl)c3F)n2)cn1 [Example 171, N-(1-((S)-1-(4-Amino-2-((1R,5S)-2-oxo-3-azabicyclo[3.1.0]hexan-3-yl)pyrimidin-5-yl)ethyl)-1H-pyrazol-4-yl)-6-(3-chloro-6-(difluoromethyl)-2-fluorophenyl)pyrazine-2-carboxamide]
9 | 0.0064 µM | 6.73 µM | C[C@@H](c1cnc(N2C[C@H]3C[C@H]3C2=O)nc1)n1cc(NC(=O)c2cncc(-c3c(C(F)F)ccc(Cl)c3F)n2)cn1 [Example 172, 6-(3-Chloro-6-(difluoromethyl)-2-fluorophenyl)-N-(1-((S)-1-(2-((1R,5S)-2-oxo-3-azabicyclo[3.1.0]hexan-3-yl)pyrimidin-5-yl)ethyl)-1H-pyrazol-4-yl)pyrazine-2-carboxamide]
10 | 0.0077 µM | 4.95 µM | C[C@@H](c1cnc(N2C[C@H]3C[C@H]3C2=O)nc1)n1cc(NC(=O)c2nc(-c3c(C(F)F)ccc(Cl)c3F)cnc2CC(C)(C)O)cn1 [Example 180]

Further lines, the compound ahead of its results:

Row | Compound | IC50 (Human plasma kallikrein) | IC50 (human Factor XIa)
11 | Cc1ccc(Cl)c(F)c1-c1cnc(C)c(C(=O)Nc2cnn(Cc3nnc(N4C[C@H]5C[C@H]5C4=O)c(C)c3C)c2)n1 [Example 112, 6-(3 -Chloro-2-fluoro-6-methylphenyl)-N-(1-((4,5-dimethyl-6-((1R,5S)-2-oxo-3-azabicyclo[3.1.0]hexan-3-yl)pyridazin-3-yl)methyl)-1H-pyrazol-4-yl)-3-methylpyrazine-2-carboxamide] | 0.0048 µM | 1.2 µM
12 | Cc1cc(Cn2cc(NC(=O)c3nc(-c4c(OC(F)F)ccc(Cl)c4F)cnc3C)cn2)nnc1N1C[C@H]2C[C@H]2C1=O [Example 113, 6-(3-Chloro-6-(difluoromethoxy)-2-fluorophenyl)-3-methyl-N-(1-((5-methyl-6-((1R,SS)-2-oxo-3-azabicyclo[3.1.0]hexan-3-yl)pyridazin-3-yl)methyl)-1H-pyrazol-4-yl)pyrazine-2-carboxamide] | 0.0021 µM | 0.114 µM
13 | Cc1ncc(-c2c(C(F)F)ccc(Cl)c2F)nc1C(=O)Nc1cnn(Cc2cnc(N3C[C@H]4C[C@H]4C3=O)c3c2OCO3)c1 [Example 149, 6-(3-Chloro-6-(difluoromethyl)-2-fluorophenyl)-3-methyl-N-(1-((4-((1R,5S)-2-oxo-3-azabicyclo[3.1.0]hexan-3-yl)-[1,3]dioxolo[4,5-c]pyridin-7-yl)methyl)-1H-pyrazol-4-yl)pyrazine-2-carboxamide] | 0.0009 µM | 0.244 µM
14 | Cc1nc(N2C[C@H]3C[C@H]3C2=O)c(F)cc1C(C)n1cc(NC(=O)c2cncc(-c3c(C(F)F)ccc(Cl)c3F)n2)cn1 (stereo partly drawn) [Example 150, 6-(3-Chloro-6-(difluoromethyl)-2-fluorophenyl)-N-(1-(1-(5-fluoro-2-methyl-6-((1R.5S)-2-oxo-3-azabicyclo[3.1.0]hexan-3-yl)pyridin-3-yl)ethyl)-1H-pyrazol-4-yl)pyrazine-2-carboxamide] | 0.177 µM | > 10 µM
15 | Cc1nc(N2C[C@H]3C[C@H]3C2=O)ncc1Cn1cc(NC(=O)c2nc(-c3c(C(F)F)ccc(Cl)c3F)cnc2CO)cn1 [Example 156, 6-(3-Chloro-6-(difluoromethyl)-2-fluorophenyl)-3-(hydroxymethyl)-N-(1-((4-methyl-2-((1R,5S)-2-oxo-3-azabicyclo[3.1.0]hexan-3-yl)pyrimidin-5-yl)methyl)-1H-pyrazol-4-yl)pyrazine-2-carboxamide] | 0.0009 µM | 0.162 µM
16 | Cc1nc(N2C[C@@H]3C[C@@H]3C2=O)ncc1[C@@H](CO)n1cc(NC(=O)c2cncc(-c3c(C(F)F)ccc(Cl)c3F)n2)cn1 [Example 157, 6-(3-Chloro-6-(difluoromethyl)-2-fluorophenyl)-N-(1-((S)-2-hydroxy-1-(4-methyl-2-((1S,5R)-2-oxo-3-azabicyclo[3.1.0]hexan-3-yl)pyrimidin-5-yl)ethyl)-1H-pyrazol-4-yl)pyrazine-2-carboxamide] | 1.02 µM | > 10 µM
17 | Cc1nc(N2C[C@@H]3C[C@@H]3C2=O)ncc1[C@H](CO)n1cc(NC(=O)c2cncc(-c3c(C(F)F)ccc(Cl)c3F)n2)cn1 [Example 158, 6-(3-Chloro-6-(difluoromethyl)-2-fluorophenyl)-N-(1-((R)-2-hydroxy-1-(4-methyl-2-((1S,5R)-2-oxo-3-azabicyclo[3.1.0]hexan-3-yl)pyrimidin-5-yl)ethyl)-1H-pyrazol-4-yl)pyrazine-2-carboxamide] | 2.72 µM | > 10 µM
18 | Cc1nc(N2C[C@H]3C[C@H]3C2=O)ncc1[C@H](CO)n1cc(NC(=O)c2cncc(-c3c(C(F)F)ccc(Cl)c3F)n2)cn1 [Example 160, 6-(3-Chloro-6-(difluoromethyl)-2-fluorophenyl)-N-(1-((R)-2-hydroxy-1-(4-methyl-2-((1R,5S)-2-oxo-3-azabicyclo[3.1.0]hexan-3-yl)pyrimidin-5-yl)ethyl)-1H-pyrazol-4-yl)pyrazine-2-carboxamide] | 0.249 µM | > 10 µM
19 | C[C@@H](c1cnc(N2C[C@H]3C[C@H]3C2=O)nc1)n1cc(NC(=O)c2nc(-c3c(C(F)F)ccc(Cl)c3F)cnc2C(F)F)cn1 [Example 174, 6-(3-Chloro-6-(difluoromethyl)-2-fluorophenyl)-3-(difluoromethyl)-N-(1-((S)-1-(2-((1R,5S)-2-oxo-3-azabicyclo[3.1.0]hexan-3-yl)pyrimidin-5-yl)ethyl)-1H-pyrazol-4-yl)pyrazine-2-carboxamide] | 0.0065 µM | 9.35 µM
20 | COCc1ncc(-c2c(C(F)F)ccc(Cl)c2F)nc1C(=O)Nc1cnn([C@@H](C)c2cnc(N3C[C@H]4C[C@H]4C3=O)nc2)c1 [Example 175, 6-(3-Chloro-6-(difluoromethyl)-2-fluorophenyl)-3-(methoxymethy-((S)-1-(2-((1R,5S)-2-oxo-3-azabicyclo[3.1.0]hexan-3-yl)pyrimidin-5-yl)ethyl)-1H-pyrazol-4-yl)pyrazine-2-carboxamide] | 0.003 µM | 3.68 µM
21 | C[C@@H](c1cnc(N2C[C@H]3C[C@H]3C2=O)nc1)n1cc(NC(=O)c2nc(-c3c(C(F)F)ccc(Cl)c3F)cnc2C(C)(C)O)cn1 [Example 181, 6-(3-Chloro-6-(difluoromethyl)-2-fluorophenyl)-3-(2-hydroxypropan-2-yl)-N-(1-((S)-1-(2-((1R,5S)-2-oxo-3-azabicyclo[3.1.0]hexan-3-yl)pyrimidin-5-yl)ethyl)-1H-pyrazol-4-yl)pyrazine-2-carboxamide] | 0.0371 µM | > 10 µM
